# Patent publication US7495027B2, “3-aryl-4-hydroxyfuranone compounds and the human and animal health use thereof” (Wyeth, priority 2003, dated 2009)
# Test system: C. elegans
# Assay: Efficacy against nematodes (C. elegans motility rating)
# Design: key: 0: no effect; 7: reduced movement in 24 h; 8: dead in 24 h; 9: dead in 4 h
# Settings: observations at 4 h and 24 h postimmersion
# Description: Evaluation of the Efficacy of a 3-Aryl-4-Hydroxyfuranone Against Nematodes
# In this evaluation, cultures of C. elegans are maintained on E. coli lawns on Nematode Growth Agar at 20° C. New cultures are established twice a week. Nematodes for testing are rinsed from plates using M9 Buffer. […] One μL of this solution is added to each well of a 96 well plate. A mixture of C. elegans in M9 Buffer (100 μL) is added to each well, such that approximately 50 worms of mixed stages (L1, L2, L3, L4 and adults) are present in each well at a final concentration of 100 ppm, 150 ppm or […] of test compound. Concentration of test compound may be varied by gradient dilution of the stock DMSO solution. Observations are made under a dissecting microscope at 4 h and 24 h postimmersion. A rating is based on the motility of the larvae and adults, using the rating system shown below.
SMILES,Rating (dose 100 ppm),Rating (dose 150 ppm),other results
O=C1OC(=Cc2ccc(-c3ccc(Cl)cc3)cc2)C(O)=C1c1ccc(C(F)(F)F)cc1 (mixture of isomers),9,,
O=C1OC(=Cc2ccc(-c3cc(C(F)(F)F)cc(C(F)(F)F)c3)cc2)C(O)=C1c1cc(C(F)(F)F)cc(C(F)(F)F)c1,,0,
O=C1OC(=Cc2ccc(-n3cncn3)cc2)C(O)=C1c1ccc(OC(F)(F)F)cc1 (mixture of isomers),9,,
COC1=C(c2cccc(C(F)(F)F)c2)C(=O)O/C1=C\c1ccccc1 [R=CH3; R1=3-CF3—C6H4; R2=C6H5],,0,
O=C1OC(=Cc2cccnc2Cl)C(O)=C1c1ccc(OC(F)(F)F)cc1 (mixture of isomers),9,,
O=C1O/C(=C\c2ccc(-c3ccccc3F)cc2)C(O)=C1c1ccccc1F [R=H; R1=2-F—C6H4; R2=4-(2′-F-biphenyl)],,8,
O=C1OC(=Cc2ccc(N3CCOCC3)nc2)C(O)=C1c1ccc(OC(F)(F)F)cc1 (mixture of isomers),0,,
CCCCc1ccc(-c2ccc(C3=C(O)C(=Cc4cc(F)cc(C(F)(F)F)c4)OC3=O)cc2)cc1,,,Rating (dose 200 μM): 9
O=C1O/C(=C\c2cc(F)cc(C(F)(F)F)c2)C(O)=C1c1cccc(-c2ccccc2)c1 [R=H; R1=3-biphenyl; R2=3-F-5-CF3—C6H3],,,Rating (dose 200 μM): 9
CN(C)c1ccc(C=C2OC(=O)C(c3cc(Cl)cc(Cl)c3)=C2O)c2ccccc12,,0,
N#Cc1ccc(C2=C(O)C(=Cc3ccc(C(F)(F)F)cc3)OC2=O)cc1 (mixture of isomers) [R=H; R1=4-CN—C6H4**; R2=4-CF3-C6H4],9,,
O=C1OC(=Cc2ccc(-c3ccc(Cl)cc3)cc2)C(O)=C1c1ccc(OC(F)(F)F)cc1 (mixture of isomers),9,,
O=C1OC(=Cc2ccc(C(F)(F)F)c(F)c2)C(O)=C1c1ccc(Cl)cc1 (mixture of isomers) [R=H; R1=4-Cl—C6H4**; R2=3-F-4-CF3—C6H4],9,,
COc1ccc(C2=C(O)/C(=C/c3ccc4ccccc4c3)OC2=O)cc1 [R=H; R1=4-OCH3—C6H4; R2=2-naphthyl],,0,
CCCCc1ccc(-c2ccc(C3=C(O)/C(=C/c4cc(C(F)(F)F)ccc4F)OC3=O)cc2)cc1,,,Rating (dose 200 μM): 0
O=C1OC(=Cc2ccc(-c3ccc(Cl)s3)cc2)C(O)=C1c1ccc(OC(F)(F)F)cc1 (mixture of isomers),9,,
Cn1cc(Cl)c(C=C2OC(=O)C(c3ccc(OC(F)(F)F)cc3)=C2O)n1 (mixture of isomers),0,,
O=C1O/C(=C\c2cc(C(F)(F)F)ccc2Cl)C(O)=C1c1ccc(N2CCOCC2)c(F)c1,,0,
O=C1OC(=Cc2ccc(-c3ccccn3)s2)C(O)=C1c1ccc(OC(F)(F)F)cc1 (mixture of isomers),9,,
O=C1OC(=Cc2cnccc2-c2ccc(OC(F)(F)F)cc2)C(O)=C1c1ccc(OC(F)(F)F)cc1 (mixture of isomers),9,,
O=C1OC(=Cc2ccc(OCC3CC3)cc2)C(O)=C1c1ccc(Cl)cc1 (mixture of isomers),7,,
Cc1c(C=C2OC(=O)C(c3ccc(OC(F)(F)F)cc3)=C2O)cnn1-c1ccccc1 (mixture of isomers),0,,
O=C1OC(=Cc2ccc(-n3cccc3)cc2)C(O)=C1c1ccc(OC(F)(F)F)cc1 (mixture of isomers),9,,

SMILES,Rating (dose 100 ppm),Rating (dose 150 ppm),other results
CN1CCN(c2ccc(C=C3OC(=O)C(c4ccc(OC(F)(F)F)cc4)=C3O)cc2)CC1 (mixture of isomers),0,,
O=C1OC(=Cc2ccc3c(c2)OC(F)(F)O3)C(O)=C1c1ccc(OC(F)(F)F)cc1 (mixture of isomers),9,,
CC(C)c1cccc(C2=C(O)/C(=C/c3cc(C(F)(F)F)ccc3Cl)OC2=O)c1,,,Rating (dose 200 μM): 0
Cc1cc(/C=C2\OC(=O)C(c3cccc(Cl)c3)=C2O)ccc1-c1ccccc1C(F)(F)F,,9,
CC(C)c1ccc(C2=C(O)/C(=C/c3cccc(C(F)(F)F)c3Cl)OC2=O)cc1,,,Rating (dose 200 μM): 9
Cc1cccc(C2=C(O)C(=Cc3cc(C(F)(F)F)ccc3Cl)OC2=O)c1C,,,Rating (dose 200 μM): 0
O=C1O/C(=C\c2ccc(OC(F)F)cc2)C(O)=C1c1ccc(Cl)s1,9,,
O=C1O/C(=C\c2ccc(OC(F)(F)F)cc2)C(O)=C1c1ccc(Cl)s1,9,,
CC(=O)Nc1cccc(C2=C(O)C(=Cc3ccc(-c4cccc(NC(C)=O)c4)cc3)OC2=O)c1,,0,
O=C1OC(=Cc2cc(F)cc(C(F)(F)F)c2)C(O)=C1c1ccc(OC(F)(F)F)cc1 (mixture of isomers) [R=H; R1=4-OCF3—C6H4**; R2=3-F-5-CF3—C6H3],9,,
Cc1cc(/C=C2\OC(=O)C(c3cccc(Cl)c3)=C2O)ccc1-c1ccccc1Cl,,9,
Cc1ccc(C2=C(O)/C(=C/c3ccc(-c4ccc(C)cc4)cc3)OC2=O)cc1,,0,
Cc1ccc(C2=C(O)/C(=C/c3cc(C(F)(F)F)ccc3Cl)OC2=O)cc1 [R=H; R1=4-CH3—C6H4; R2=2-Cl-5-CF3—C6H3],,,Rating (dose 200 μM): 0
O=C1OC(=Cc2ccc(OCC3CC3)cc2)C(O)=C1c1ccc(OC(F)(F)F)cc1 (mixture of isomers),0,,
O=C1O/C(=C\c2ccc(N3CCN(c4ccccc4Cl)CC3)c(Cl)c2)C(O)=C1c1cc(Cl)cc(Cl)c1,,0,
O=C1OC(=Cc2ccc(Br)o2)C(O)=C1c1ccc(OC(F)(F)F)cc1 (mixture of isomers),9,,
O=C1O/C(=C\c2ccccc2-c2ccc(Cl)cc2)C(O)=C1c1ccc(Cl)cc1 [R=H; R1=4-Cl—C6H4; R2=2-(4′-Cl-biphenyl)],,0,
COC1=C(c2ccc(OC)cc2)C(=O)O/C1=C\c1cccc(C(F)(F)F)c1 [R=CH3; R1=4-OCH3—C6H4; R2=3-CF3—C6H4],,0,
COC1=C(c2ccc(OC)cc2)C(=O)O/C1=C\c1ccccc1 [R=CH3; R1=4-OCH3—C6H4; R2=C6H5],,0,
N#Cc1ccc(C=C2OC(=O)C(c3ccc(C(F)(F)F)cc3)=C2O)cc1 (mixture of isomers) [R=H; R1=4-CF3—C6H4**; R2=4-CN—C6H4],9,,
COc1cc(/C=C2\OC(=O)C(c3cccc(Cl)c3)=C2O)ccc1-c1ccccc1Cl,,8,
CCCOc1ccc(C=C2OC(=O)C(c3ccc(OC(F)(F)F)cc3)=C2O)cc1 (mixture of isomers),0,,
CC(C)(C)c1ccc(-c2ccc(C3=C(O)/C(=C/c4cccc(C(F)(F)F)c4)OC3=O)cc2)cc1,,,Rating (dose 200 μM): 0

SMILES,Rating (dose 100 ppm),Rating (dose 150 ppm),other results
CCOC(=O)N1CCN(c2ccc(C=C3OC(=O)C(c4cc(Cl)cc(Cl)c4)=C3O)cc2F)CC1,,0,
O=C1OC(=Cc2ccc(C(F)(F)F)cc2)C(O)=C1c1ccc(C(F)(F)F)cc1 (mixture of isomers) [R=H; R1=4-CF3—C6H4**; R2=4-CF3—C6H4],9,,
COc1ccc(-n2ncc(C=C3OC(=O)C(c4ccc(OC(F)(F)F)cc4)=C3O)c2C)cc1 (mixture of isomers),0,,
Cc1ccccc1-c1ccc(C=C2OC(=O)C(c3cc(Cl)cc(Cl)c3)=C2O)cc1C,,0,
O=C1O/C(=C\c2cccc3ccccc23)C(O)=C1c1ccc(C(F)(F)F)cc1 [R=H; R1=4-CF3—C6H4; R2=1-naphthyl],,9,
CCCc1ccc(-c2ccc(C3=C(O)/C(=C/c4cccc(C(F)(F)F)c4Cl)OC3=O)cc2)cc1,,,Rating (dose 200 μM): 9
CCOc1ccc(-c2ccc(C3=C(O)/C(=C/c4cc(C(F)(F)F)ccc4F)OC3=O)cc2)cc1,,,Rating (dose 200 μM): 9
O=C1OC(=Cc2cccc(OCc3ccccc3)c2)C(O)=C1c1cc(Cl)cc(Cl)c1,,0,
Cc1cc(C=C2OC(=O)C(c3ccc(OC(F)(F)F)cc3)=C2O)n(C)n1 (mixture of isomers),0,,
COc1ccccc1-c1ccc(C=C2OC(=O)C(c3cc(Cl)cc(Cl)c3)=C2O)cc1C,,0,
O=C1OC(=Cc2ccccc2C(F)(F)F)C(O)=C1c1ccc(Cl)cc1 (mixture of isomers) [R=H; R1=4-Cl—C6H4**; R2=2-CF3—C6H4],9,,
Cc1c(C=C2OC(=O)C(c3ccc(OC(F)(F)F)cc3)=C2O)cnn1-c1ccc(F)cc1 (mixture of isomers),0,,
CCCc1ccc(-c2ccc(C3=C(O)/C(=C/c4cc(C(F)(F)F)ccc4Cl)OC3=O)cc2)cc1,,,Rating (dose 200 μM): 0
O=C1O/C(=C\c2cc(C(F)(F)F)ccc2F)C(O)=C1c1cccc(-c2ccccc2)c1 [R=H; R1=3-biphenyl; R2=2-F-5-CF3—C6H3],,,Rating (dose 200 μM): 9
CCOC(=O)CNC(=O)CNC(=O)c1cccc(/C=C2\OC(=O)C(c3cc(Cl)cc(Cl)c3)=C2O)c1,,0,
CC(=NO)c1ccc(C2=C(O)C(=Cc3cccc4ccccc34)OC2=O)cc1 [R=H; R1=4-(CH3C═NOH)—C6H4; R2=1-naphthyl],,7,
O=C1OC(=Cc2ccc(Cl)cc2)C(O)=C1c1ccc(C(F)(F)F)cc1 (mixture of isomers) [R=H; R1=4-CF3—C6H4**; R2=4-Cl—C6H4],9,,
CCCc1ccc(-c2ccc(C3=C(O)/C(=C/c4cc(C(F)(F)F)ccc4F)OC3=O)cc2)cc1,,,Rating (dose 200 μM): 9
O=C1O/C(=C\c2cccc3ccccc23)C(O)=C1c1cccc(C=NO)c1 [R=H; R1=3-(C═NOH)—C6H4; R2=1-naphthyl],,0,
O=C1O/C(=C\c2cccc(C(F)(F)F)c2)C(O)=C1c1cccc(-c2ccccc2)c1 [R=H; R1=3-biphenyl; R2=3-CF3—C6H4],,0,
O=C1OC(=Cc2cccc(Cl)c2)C(O)=C1c1ccc(Cl)cc1 (mixture of isomers) [R=H; R1=4-Cl—C6H4**; R2=3-Cl—C6H4],,9,
O=C1OC(=Cc2cc(F)cc(C(F)(F)F)c2)C(O)=C1c1ccc(-c2ccccc2)cc1 [R=H; R1=4-biphenyl; R2=3-F-5-CF3—C6H3],,,Rating (dose 200 μM): 9
